Measured values taken from publication PMC3586934 (Anesthesiology, 2012).
Like-named read-outs stand apart in the source and are kept apart here.

Legend:
[1] = test system: CYP2B6; conditions: cited from earlier work
[2] = both, human, in vivo, iv
[3] = Intravenous; conditions: for Cmax / AUC(0-t) / AUC(0-inf): both, human, in vivo; for AUC(0-t): AUC0-96, oral methadone; for AUC(0-inf): AUC0-∞; for AUC(0-inf) / Foral: oral methadone
[4] = test system: CYP3A4; conditions: cited from earlier work
[5] = cited from earlier work
[6] = test system: healthy volunteers; conditions: 6.0 mg intravenous plus 11.0 mg oral methadone HCl
[7] = cited from earlier work; remark: listed apart in the source
[8] = test system: CYP3A; conditions: human, in vivo; cited from earlier work
[9] = test system: P-gp; conditions: cited from earlier work
[10] = test system: P-gp; conditions: rats; cited from earlier work

In the case of `CCC(=O)C(C[C@H](C)N(C)C)(c1ccccc1)c1ccccc1` [S-methadone], the Km [1] is listed as 16 µM, the EH [2] is listed as 0.06 ± 0.02 and the Cmax ([3]; iv, 6 mg) is listed as 83 ± 39 ng/mL. The Cmax ([3]; po, 11 mg) was 30 ± 10 ng/mL, the AUC(0-t) ([3]; po, 11 mg, control) was 688 ± 169 ng·h/mL and the AUC(0-inf) ([3]; po, 11 mg, control) was 780 ± 200 ng·h/mL. The AUC(0-t) ([3]; po, after indinavir) was 685 ± 131 ng·h/mL, the AUC(0-inf) ([3]; po, after indinavir) was 805 ± 194 ng·h/mL and the Foral ([3]; after indinavir) was 0.90 ± 0.11. The Foral ([3]; control) was 0.87 ± 0.10 and the Km [4] was 149 µM.
For `O=C1Nc2ccc(Cl)cc2[C@@](C#CC2CC2)(C(F)(F)F)O1` [efavirenz], the “methadone clearance, change” value [5] is listed as “doubled”.
With `CCC(=O)C(CC(C)N(C)C)(c1ccccc1)c1ccccc1` (stereo not shown) [methadone] the “AUEC0-∞” value ([6]; after indinavir) was 96± 56 mm•hr, the Maximum miosis ([6]; after indinavir) was 3.6 ± 1.0 mm and the “AUEC0-∞” value ([6]; control) was 87 ± 66 mm•hr. For the same compound, the Maximum miosis ([6]; control) was 3.6 ± 1.0 mm, the FG predicted [7] was 0.97 and the “FG, average in several investigations” value [7] was 0.96. The “EH, average” value ([7]; intravenous methadone) was 0.09 and the fhep ([7]; intravenous methadone) was 0.76.
In the case of `Cc1c(O)cccc1C(=O)N[C@@H](CSc1ccccc1)[C@H](O)CN1C[C@H]2CCCC[C@H]2C[C@H]1C(=O)NC(C)(C)C` [nelfinavir], the “inhibition of first-pass CYP3A” value [8] is listed as over 75%, the “inhibition of hepatic CYP3A” value [8] is listed as 50% and the “fexofenadine Cmax, change” value [9] is listed as “decreased”.
In the case of `CO[C@H]1/C=C/O[C@@]2(C)Oc3c(C)c(O)c4c(O)c(c(/C=N/N5CCN(C)CC5)c(O)c4c3C2=O)NC(=O)/C(C)=C\C=C\[C@H](C)[C@H](O)[C@@H](C)[C@@H](O)[C@@H](C)[C@H](OC(C)=O)[C@@H]1C` [rifampin], the “methadone clearance, change” value [5] is listed as “doubled”.
In the case of `CC(C)c1nc(CN(C)C(=O)N[C@H](C(=O)N[C@@H](Cc2ccccc2)C[C@H](O)[C@H](Cc2ccccc2)NC(=O)OCc2cncs2)C(C)C)cs1` [ritonavir], the “methadone clearance, change” value [5] is listed as “doubled”.
In the case of `C/C=C/C[C@@H](C)C(=O)[C@H]1C(=O)N[C@@H](C(C)C)C(=O)N(C)CC(=O)N(C)[C@@H](CC(C)C)C(=O)N[C@@H](C(C)C)C(=O)N(C)[C@@H](CC(C)C)C(=O)N[C@@H](C)C(=O)N[C@H](C)C(=O)N(C)[C@@H](CC(C)C)C(=O)N(C)[C@@H](CC(C)C)C(=O)N(C)[C@@H](C(C)C)C(=O)N1C` [valspodar], the “oral methadone bioavailability, change” value [10] is listed as “increased”.
For `C[C@@H](c1ncncc1F)[C@](O)(Cn1cncn1)c1ccc(F)cc1F` [voriconazole], the “R-methadone AUC, increase” value [5] is listed as 47% and the “S-methadone AUC, increase” value [5] is listed as 103%.
